Measured values from patent US9834525B2, “Inhibitors of paxillin function and related compositions and methods” (UNIVERSITY OF TENNESSEE RESEARCH FOUNDATION, priority 2015, dated 2017).
Entries after “also recorded” stand apart in the source; their conditions may differ.

Legend:
ERK1/2 = test: Western blot of VEGF-induced ERK1/2 phosphorylation in REC; format: cell-based, human; details: REC under VEGF; compound (II-4) 500 nM, SU6656 1 μM
Experimental: REC, Mel 270, OMM 2.5 under Hepatocyte Growth Factor (HGF) or Vascular Endothelial Growth Factor (VEGF) stimulation conditions: Cell lysates were collected in RIPA lysis buffer (50 mM Tris-HCl, pH 7.4, 150 mM NaCl, 2 mM EDTA, 1% Nonidet P-40, 0.1% SDS) with protease 1× inhibitor cocktail (Roche; Indianapolis, Ind.). Lysates were kept on ice and centrifuged at 10,000×g×10 minutes and total protein was measured using the BCA assay (Pierce, Rockford, Ill.). Protein samples were mixed with 4×LDS loading buffer with 2.5% 2-mercaptoethanol (Sigma-Aldrich), heated to 70° C. for 10 minutes, and loaded on NuPAGE 4-12% Bis-Tris gel (Invitrogen, Carlsbad, Calif.). Immunoblotting was performed with nitrocellulose membranes (Bio-Rad, Hercules, Calif.) at 170-mA start and 110-mA end at 25 V for two hours in NuPAGE transfer buffer (Invitrogen) containing 20% methanol. Membranes were blocked using Odyssey blocking buffer (LI-COR; Lincoln, Nebr.) for one hour at room temperature with gentle shaking Membranes were then incubated at 4° C. with specific primary antibodies (1:1000) overnight. Cellular protein was normalized using rabbit-GAPDH or mouse-α-Tubulin [1:20,000] (Cell Signaling, Danvers, Mass.; LI-COR, respectively). […] Dual-channel infrared scan and quantitation of immunoblots were conducted using the ODYSSEY Sa infrared imaging system with Image Studio (Ver. 3.1.4) (LI-COR). […]

UM tumor cells = test: Phalloidin (F-actin) analysis by flow cytometry in UM cells; format: cell-based, human; details: treatment for 24 hrs
Experimental: Retinal endothelial cells (REC) and UM-OMM 2.5 cells were harvested, washed and counted. 1.0×10^6 cells were fixed for 1 hr at 4° C. and permeabilized with the Intracellular Fixation and Permeabilization Buffer Kit (eBiosciences, San Diego, Calif.). Cells were washed followed by Alexa-Fluor 647 Phalloidin (MOLECULAR PROBES, Life Technologies, Carlsbad, Calif.) labeling using 1 U/μL. Cells were washed and analyzed using BD LSR II followed by analysis using FlowJo xV10.0.6 software.
Next, it was investigated if reduced numbers were a consequence of a reduction in UM cells proliferation. Cell cultures in the presence or absence of compound (II-4) were analyzed by follow cytometry for cytoskeletal fragmentation and proliferation. Uncontrolled cytoskeletal remodeling and cell proliferation are considered hallmarks of tumor growth and metastasis. […]
FIG. 15: The paxillin inhibitor Compound (II-4) selectively affects cellular proliferation of primary UM cells that become metastatic. […] Unlabeled cells were used to control fluorescence. […] B. Quantitation of experiment +/−SD including primary UM that becomes metastatic (Mel 270), metastatic (OMM 2.1) and primary (92.1) UM cells. *P=0.0007 and **P=0.0005. […] Quantitation of VLA-4 protein levels +/−SD from n=3. […]

[1] = Microsomal stability, pooled mouse liver microsomes; format: in vitro ADME; details: 1 μM, 37° C., 60 min
Experimental: (§1) Microsomal stability of compound (II-4) (1 μM) was assessed in pooled liver microsomes (human, mouse, and rat) (FIG. 7). Briefly, compound (II-4) was incubated in duplicate with microsomes at 37° C. Reactions contained microsomal protein in 100 mM potassium phosphate, 2 mM NADPH, 3 mM MgCl2, pH 7.4. NADPH was omitted to detect NADPH-free degradation. At 60 minutes, the reaction was stopped by adding ice-cold methanol containing internal standard. Samples were centrifuged to remove precipitated protein, and the supernatants were analyzed by LC/MS/MS to quantitate the remaining parent.
as §1, with “23).” for “7).”, “min,” for “minutes,”, “(+” for “containing”, “standard).” for “standard.”

microsomal stability (metabolism by cytochrome P-450 enzymes) [1]: rapidly metabolized
SMILES: COc1cc(C2OC(=O)Nc3c2ccc2ccccc32)cc(OC)c1OC (stereo not drawn) [compound II-4]
VEGF-dependent ERK1/2 phosphorylation (ERK1/2): No significant change; also recorded: Neither SU6656 nor compound (II-4) decreased
actin remodeling (intracellular phalloidin, F-actin) (UM tumor cells): no difference in actin remodeling
